Source: BindingDB's records for doi:10.1002/(SICI)1098-2396(200002)35:2<79::AID-SYN1>3.0.CO;2-X (Institut De Recherches Servier, 2000)

How the values were obtained:
D(3) dopamine receptor = D(3) dopamine receptor (Homo sapiens, UniProt P35462)
[1] = molecular target: T1, 5-hydroxytryptamine receptor 1A (Homo sapiens, UniProt P08908)
T1 sequence (P08908 whole entry): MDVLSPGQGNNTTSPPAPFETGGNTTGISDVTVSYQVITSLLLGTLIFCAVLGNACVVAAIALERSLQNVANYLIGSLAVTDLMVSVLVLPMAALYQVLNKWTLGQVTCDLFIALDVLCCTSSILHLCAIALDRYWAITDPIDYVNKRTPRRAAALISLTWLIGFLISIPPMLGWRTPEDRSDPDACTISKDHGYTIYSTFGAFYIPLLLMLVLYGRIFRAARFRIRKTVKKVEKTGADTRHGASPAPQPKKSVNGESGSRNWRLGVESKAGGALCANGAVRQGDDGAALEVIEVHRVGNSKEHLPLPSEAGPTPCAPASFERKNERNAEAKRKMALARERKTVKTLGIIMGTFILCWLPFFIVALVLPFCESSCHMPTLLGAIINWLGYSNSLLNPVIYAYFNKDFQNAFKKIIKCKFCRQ

D(2) dopamine receptor = D(2) dopamine receptor (Homo sapiens, UniProt P14416)
Sequence of D(2) dopamine receptor (P14416 whole entry): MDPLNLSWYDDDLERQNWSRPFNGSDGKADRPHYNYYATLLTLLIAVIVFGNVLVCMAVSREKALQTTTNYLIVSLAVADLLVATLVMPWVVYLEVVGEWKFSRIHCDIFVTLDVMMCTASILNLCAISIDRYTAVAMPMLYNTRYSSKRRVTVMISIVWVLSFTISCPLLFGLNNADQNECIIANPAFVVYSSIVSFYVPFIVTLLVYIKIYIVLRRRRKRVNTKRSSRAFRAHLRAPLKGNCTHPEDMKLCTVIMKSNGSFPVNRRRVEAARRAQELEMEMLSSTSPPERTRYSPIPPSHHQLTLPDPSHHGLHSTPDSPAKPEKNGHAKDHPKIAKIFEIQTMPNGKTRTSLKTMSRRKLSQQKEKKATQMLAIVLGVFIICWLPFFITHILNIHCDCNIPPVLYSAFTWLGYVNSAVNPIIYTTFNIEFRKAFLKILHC

[2] = molecular target: T2, Alpha-1A adrenergic receptor (Homo sapiens, UniProt P35348)
T2 sequence (P35348 whole entry): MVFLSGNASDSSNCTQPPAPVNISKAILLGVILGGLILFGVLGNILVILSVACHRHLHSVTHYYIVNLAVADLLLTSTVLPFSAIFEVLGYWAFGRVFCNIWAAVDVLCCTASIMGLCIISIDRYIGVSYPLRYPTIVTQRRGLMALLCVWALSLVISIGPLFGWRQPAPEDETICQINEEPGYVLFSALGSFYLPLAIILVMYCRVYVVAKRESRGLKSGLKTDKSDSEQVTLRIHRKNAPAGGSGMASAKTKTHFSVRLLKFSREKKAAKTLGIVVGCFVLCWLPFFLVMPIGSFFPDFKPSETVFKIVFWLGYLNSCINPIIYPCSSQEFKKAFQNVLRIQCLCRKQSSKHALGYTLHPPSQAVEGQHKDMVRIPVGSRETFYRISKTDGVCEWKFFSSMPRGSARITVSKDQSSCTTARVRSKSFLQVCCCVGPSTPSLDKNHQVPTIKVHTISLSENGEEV

[3] = molecular target: T3, Alpha-1A adrenergic receptor (Rattus norvegicus, UniProt P43140)
T3 sequence (P43140 whole entry): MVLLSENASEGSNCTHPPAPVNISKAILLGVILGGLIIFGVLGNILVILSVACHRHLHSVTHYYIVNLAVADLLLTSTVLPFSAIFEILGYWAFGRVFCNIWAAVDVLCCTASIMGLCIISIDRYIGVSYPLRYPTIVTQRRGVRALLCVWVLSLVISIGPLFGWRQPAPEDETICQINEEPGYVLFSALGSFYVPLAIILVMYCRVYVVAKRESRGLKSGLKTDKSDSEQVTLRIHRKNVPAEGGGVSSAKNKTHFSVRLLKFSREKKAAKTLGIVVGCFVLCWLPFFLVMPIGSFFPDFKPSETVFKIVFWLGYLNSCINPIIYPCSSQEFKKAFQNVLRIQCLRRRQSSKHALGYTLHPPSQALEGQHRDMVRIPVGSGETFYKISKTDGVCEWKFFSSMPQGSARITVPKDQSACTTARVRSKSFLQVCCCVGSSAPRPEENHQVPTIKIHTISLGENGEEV

[4] = molecular target: T4, Alpha-1D adrenergic receptor (Homo sapiens, UniProt P25100)
T4 sequence (P25100 whole entry): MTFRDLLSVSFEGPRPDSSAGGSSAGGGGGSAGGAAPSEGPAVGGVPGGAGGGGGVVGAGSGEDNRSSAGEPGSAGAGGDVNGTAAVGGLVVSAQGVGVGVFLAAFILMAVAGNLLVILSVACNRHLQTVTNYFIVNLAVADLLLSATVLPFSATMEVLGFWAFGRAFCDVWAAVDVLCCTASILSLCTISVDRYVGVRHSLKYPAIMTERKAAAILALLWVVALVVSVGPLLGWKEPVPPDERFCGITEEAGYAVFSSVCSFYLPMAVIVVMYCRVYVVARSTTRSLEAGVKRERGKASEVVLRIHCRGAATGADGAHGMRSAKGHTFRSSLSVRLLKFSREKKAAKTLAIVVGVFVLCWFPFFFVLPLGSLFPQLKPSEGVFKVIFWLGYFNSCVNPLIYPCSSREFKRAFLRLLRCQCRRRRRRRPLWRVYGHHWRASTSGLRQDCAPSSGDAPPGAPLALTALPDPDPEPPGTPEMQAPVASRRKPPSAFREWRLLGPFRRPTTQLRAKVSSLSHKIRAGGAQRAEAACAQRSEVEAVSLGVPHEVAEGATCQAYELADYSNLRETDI

[5] = molecular target: T5, Alpha-2C adrenergic receptor (Rattus norvegicus, UniProt P22086)
T5 sequence (P22086 whole entry): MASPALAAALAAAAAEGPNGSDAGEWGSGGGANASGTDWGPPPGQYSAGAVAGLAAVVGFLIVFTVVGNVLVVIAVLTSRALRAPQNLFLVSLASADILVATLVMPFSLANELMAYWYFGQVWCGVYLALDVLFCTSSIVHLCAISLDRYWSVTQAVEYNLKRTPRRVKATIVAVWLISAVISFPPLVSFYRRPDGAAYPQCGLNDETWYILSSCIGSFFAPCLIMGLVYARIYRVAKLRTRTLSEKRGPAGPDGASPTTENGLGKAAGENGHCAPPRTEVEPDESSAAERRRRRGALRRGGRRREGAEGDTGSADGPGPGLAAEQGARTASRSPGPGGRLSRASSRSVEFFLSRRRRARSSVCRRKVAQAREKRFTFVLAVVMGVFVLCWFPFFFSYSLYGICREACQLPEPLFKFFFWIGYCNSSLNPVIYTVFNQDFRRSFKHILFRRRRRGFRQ

Sequence of D(3) dopamine receptor (P35462 as listed by the source): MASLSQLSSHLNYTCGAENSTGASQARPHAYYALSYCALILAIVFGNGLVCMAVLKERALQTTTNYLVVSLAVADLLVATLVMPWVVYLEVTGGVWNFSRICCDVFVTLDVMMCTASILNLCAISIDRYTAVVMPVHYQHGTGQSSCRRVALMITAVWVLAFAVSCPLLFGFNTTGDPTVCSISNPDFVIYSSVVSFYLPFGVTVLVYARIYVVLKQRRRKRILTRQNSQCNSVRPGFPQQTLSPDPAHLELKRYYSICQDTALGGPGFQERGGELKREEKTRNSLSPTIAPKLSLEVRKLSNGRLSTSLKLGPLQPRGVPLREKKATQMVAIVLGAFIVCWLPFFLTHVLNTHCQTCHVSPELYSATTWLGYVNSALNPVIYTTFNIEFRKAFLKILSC

Q: `Fc1cccc2c1OC1CNCC1O2` (configuration not stated) [CAS_105182-45-4] was tested. Which Ki (D(3) dopamine receptor) did it give?
A: Its Ki is 1000 nM.

Q: What about the Ki [1] of the same compound?
A: The Ki was 158 nM.

Q: And the Ki (D(2) dopamine receptor)?
A: The Ki was 1000 nM.

Q: What about the Ki [2] of the same compound?
A: Its Ki is 501 nM.

Q: And the Ki [3]?
A: The Ki was 794 nM.

Q: And the Ki [4]?
A: The Ki was 126 nM.

Q: What about the Ki [5] of the same compound?
A: The Ki was 0.5 nM.
